Assay results published in publication PMC6199744, “Development of Chemical Proteomics for the Folateome and Analysis of the Kinetoplastid Folateome” (ACS Infectious Diseases, 2018).
Like-named read-outs stand apart in the source and are kept apart here.

How the values were obtained:
Format in all cases: binding
[1] = molecular target: T1, HeLa cell extract proteins (Homo sapiens, UniProt O43592)
T1 construct: endogenous in cells; host or cells: HeLa cell extract
T1 sequence (O43592 1-962): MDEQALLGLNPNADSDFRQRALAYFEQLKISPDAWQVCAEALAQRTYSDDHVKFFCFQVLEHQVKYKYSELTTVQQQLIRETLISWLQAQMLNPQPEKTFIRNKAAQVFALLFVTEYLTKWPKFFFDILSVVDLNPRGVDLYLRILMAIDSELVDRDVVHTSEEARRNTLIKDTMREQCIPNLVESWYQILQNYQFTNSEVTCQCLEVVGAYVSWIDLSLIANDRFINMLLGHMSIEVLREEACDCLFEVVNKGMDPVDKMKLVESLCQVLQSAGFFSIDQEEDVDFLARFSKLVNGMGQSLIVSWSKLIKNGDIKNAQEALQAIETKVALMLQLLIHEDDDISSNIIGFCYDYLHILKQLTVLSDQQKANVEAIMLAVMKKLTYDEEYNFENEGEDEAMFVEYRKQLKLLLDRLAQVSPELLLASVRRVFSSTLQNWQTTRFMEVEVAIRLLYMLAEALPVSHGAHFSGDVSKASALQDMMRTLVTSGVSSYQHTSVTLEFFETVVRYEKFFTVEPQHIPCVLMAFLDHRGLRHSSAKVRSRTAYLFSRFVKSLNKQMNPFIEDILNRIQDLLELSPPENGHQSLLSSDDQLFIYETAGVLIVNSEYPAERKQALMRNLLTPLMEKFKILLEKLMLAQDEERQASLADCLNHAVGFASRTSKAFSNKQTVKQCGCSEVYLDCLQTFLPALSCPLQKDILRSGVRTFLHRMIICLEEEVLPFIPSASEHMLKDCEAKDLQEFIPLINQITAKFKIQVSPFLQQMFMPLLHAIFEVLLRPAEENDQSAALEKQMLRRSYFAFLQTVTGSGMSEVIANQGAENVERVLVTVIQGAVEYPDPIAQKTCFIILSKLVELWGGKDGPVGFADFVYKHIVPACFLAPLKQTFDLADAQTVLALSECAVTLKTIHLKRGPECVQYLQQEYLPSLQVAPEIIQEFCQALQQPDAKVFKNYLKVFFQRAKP

[2] = molecular target: T2, HeLa cell extract proteins (Homo sapiens, UniProt P00491)
T2 construct: endogenous in cells; host or cells: HeLa cell extract
T2 sequence (P00491 1-289): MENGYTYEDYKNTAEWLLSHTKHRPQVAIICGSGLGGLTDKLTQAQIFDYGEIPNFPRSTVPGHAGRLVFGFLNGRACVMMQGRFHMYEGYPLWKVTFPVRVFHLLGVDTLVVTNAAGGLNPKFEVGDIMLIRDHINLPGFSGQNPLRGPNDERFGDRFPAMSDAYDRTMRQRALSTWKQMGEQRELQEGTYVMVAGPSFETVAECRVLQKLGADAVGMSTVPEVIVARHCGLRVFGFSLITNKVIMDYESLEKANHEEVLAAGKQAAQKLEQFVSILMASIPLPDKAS

[3] = molecular target: T3, HeLa cell extract proteins (Homo sapiens, UniProt P25787)
T3 construct: endogenous in cells; host or cells: HeLa cell extract
T3 sequence (P25787 1-234): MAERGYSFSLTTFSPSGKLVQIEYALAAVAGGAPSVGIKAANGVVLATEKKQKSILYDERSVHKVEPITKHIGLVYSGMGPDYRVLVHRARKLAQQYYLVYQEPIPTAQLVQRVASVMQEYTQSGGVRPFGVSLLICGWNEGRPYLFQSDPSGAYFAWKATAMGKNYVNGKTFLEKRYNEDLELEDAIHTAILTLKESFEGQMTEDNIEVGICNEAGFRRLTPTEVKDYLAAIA

[4] = molecular target: T4, HeLa cell extract proteins (Homo sapiens, UniProt P68366)
T4 construct: endogenous in cells; host or cells: HeLa cell extract
T4 sequence (P68366 whole entry): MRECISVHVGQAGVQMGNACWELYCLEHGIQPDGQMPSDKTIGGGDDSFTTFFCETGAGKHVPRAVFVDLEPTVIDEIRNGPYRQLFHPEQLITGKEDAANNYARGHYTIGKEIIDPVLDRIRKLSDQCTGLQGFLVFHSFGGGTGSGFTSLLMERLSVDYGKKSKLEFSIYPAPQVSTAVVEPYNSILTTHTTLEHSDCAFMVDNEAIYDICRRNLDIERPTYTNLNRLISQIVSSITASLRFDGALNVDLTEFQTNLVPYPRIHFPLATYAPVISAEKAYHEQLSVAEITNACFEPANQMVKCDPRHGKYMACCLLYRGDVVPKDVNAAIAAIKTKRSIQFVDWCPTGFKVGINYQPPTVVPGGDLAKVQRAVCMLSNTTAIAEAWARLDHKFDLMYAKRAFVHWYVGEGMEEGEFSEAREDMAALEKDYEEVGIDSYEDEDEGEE

[5] = molecular target: T5, HeLa cell extract proteins (Homo sapiens, UniProt Q16831)
T5 construct: endogenous in cells; host or cells: HeLa cell extract
T5 sequence (Q16831 whole entry): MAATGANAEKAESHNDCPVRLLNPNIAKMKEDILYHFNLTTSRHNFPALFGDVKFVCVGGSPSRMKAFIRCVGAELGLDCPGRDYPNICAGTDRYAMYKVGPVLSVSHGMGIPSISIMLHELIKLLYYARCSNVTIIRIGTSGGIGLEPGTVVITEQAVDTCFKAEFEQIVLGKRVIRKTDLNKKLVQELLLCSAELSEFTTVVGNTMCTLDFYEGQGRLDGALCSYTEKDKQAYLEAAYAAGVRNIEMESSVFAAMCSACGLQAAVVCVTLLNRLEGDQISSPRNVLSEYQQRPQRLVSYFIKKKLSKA

[6] = molecular target: T6, HeLa cell extract proteins (Homo sapiens, UniProt Q9Y573)
T6 construct: endogenous in cells; host or cells: HeLa cell extract
T6 sequence (Q9Y573 1-584): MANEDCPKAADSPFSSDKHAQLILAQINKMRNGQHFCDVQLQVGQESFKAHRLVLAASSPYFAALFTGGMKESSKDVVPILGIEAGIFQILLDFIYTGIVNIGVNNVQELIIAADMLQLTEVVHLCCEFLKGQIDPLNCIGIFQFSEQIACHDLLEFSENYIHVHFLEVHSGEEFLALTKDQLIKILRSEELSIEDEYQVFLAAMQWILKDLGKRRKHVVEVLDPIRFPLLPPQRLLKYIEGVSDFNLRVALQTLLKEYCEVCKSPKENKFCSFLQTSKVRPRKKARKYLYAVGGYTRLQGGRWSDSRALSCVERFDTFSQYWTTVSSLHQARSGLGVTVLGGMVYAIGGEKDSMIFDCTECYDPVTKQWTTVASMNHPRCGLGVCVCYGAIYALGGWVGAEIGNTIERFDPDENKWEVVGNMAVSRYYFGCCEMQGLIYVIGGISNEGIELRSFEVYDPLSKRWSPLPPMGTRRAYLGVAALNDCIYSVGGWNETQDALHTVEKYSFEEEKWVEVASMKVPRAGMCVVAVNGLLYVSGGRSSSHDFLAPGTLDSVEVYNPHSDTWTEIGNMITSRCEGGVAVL

[7] = HeLa, protein UPP1 (ISOFORM 1 OF URIDINE PHOSPHORYLASE 1)
[8] = HeLa, protein IPP (ACTIN-BINDING PROTEIN IPP)

Structure (SMILES) | fold changes relative to vehicle control ([1]; HeLa, protein XPOT) | fold changes relative to vehicle control ([2]; protein NP, HeLa) | fold changes relative to vehicle control ([3]; HeLa, captured protein PSMA2) | fold changes relative to vehicle control ([4]; HeLa, protein TUBA4A) | fold changes relative to vehicle control [5, 7] | fold changes relative to vehicle control [6, 8] | fold changes relative to vehicle control ([3]; protein PSMA2, HeLa) | fold changes relative to vehicle control ([4]; captured protein TUBA4A, HeLa) | fold changes relative to vehicle control ([5]; HeLa, protein UPP1) | fold changes relative to vehicle control ([6]; protein IPP, HeLa) | fold changes relative to vehicle control [1] | fold changes relative to vehicle control [2] | fold changes relative to vehicle control [3] | fold changes relative to vehicle control [4] | fold changes relative to vehicle control [5] | fold changes relative to vehicle control [6]
Nc1nc2c(c(=O)[nH]1)N(C=O)C(CNc1ccc(C(=O)N[C@@H](CCC(=O)O)C(=O)O)cc1)CN2 (stereo partly drawn) [LEU, leucovorin] | 0.94 | 0.9 | 0.98 | 0.9 | 1.01 | 0.99 |  |  |  |  |  |  |  |  |  | 
NCCCNc1ccc(C(=O)NC(CCC(=O)O)C(=O)O)cc1 (stereo not drawn) [compound 7] | 0.99 | 0.89 | 1.02 | 0.99 | 0.96 | 0.9 |  |  |  |  |  |  |  |  |  | 
CCCCCCOc1cccc(Cc2cnc(N)nc2N)c1 [compound 2] | 1.02 | 1.4 |  |  |  |  | 1.17 | 0.88 | 1.16 | 1.05 |  |  |  |  |  | 
CCCCCCOc1ccc(Cc2cnc(N)nc2N)cc1 [compound 1] | 0.95 | 1.16 |  |  |  |  | 1.14 | 0.95 | 0.88 | 1.03 |  |  |  |  |  | 
Nc1nc2cccc(-c3ccccc3)c2n1Cc1ccc(Cl)c(Cl)c1 [compound 3] | 1.08 | 0.96 |  |  |  |  | 0.95 | 1.01 | 1.05 | 0.93 |  |  |  |  |  | 
NCCOCCOCC(=O)Nc1nc2ncc(CNc3ccc(C(=O)NC(CCC(=O)O)C(=O)O)cc3)nc2c(=O)[nH]1 (stereo not drawn) [compound 6] | 0.94 | 1.08 | 1.05 | 0.98 | 0.44 | 0.89 |  |  |  |  |  |  |  |  |  | 
Nc1nc2[nH]cc(CCc3ccc(C(=O)N[C@@H](CCC(=O)O)C(=O)O)cc3)c2c(=O)[nH]1 [PTX, pemetrexed] |  |  |  |  |  |  |  |  |  |  | 0.84 | 0.89 | 1.02 | 0.83 | 1.11 | 0.92
